Assay results: ChEMBL document CHEMBL4400520, “Benzofuran-isatin-imine hybrids tethered via different length alkyl linkers: Design, synthesis and in vitro evaluation of anti-tubercular and anti-bacterial activities as well as cytotoxicity” (Eur J Med Chem, 2019)
Converted amounts (≈) assume the structure as drawn.

What was measured:
Format in all cases: functional
[1] = system: Mycobacterium tuberculosis; assay: Antitubercular activity against multidrug resistant Mycobacterium tuberculosis isolate 2
[2] = system: Mycobacterium tuberculosis; assay: Antitubercular activity against multidrug resistant Mycobacterium tuberculosis isolate 1
[3] = system: Mycobacterium tuberculosis; assay: Potency index, ratio of rifampin MIC to compound MIC for multidrug resistant Mycobacterium tuberculosis isolate 2
[4] = system: Mycobacterium tuberculosis; assay: Potency index, ratio of isoniazid MIC to compound MIC for multidrug resistant Mycobacterium tuberculosis isolate 1
[5] = system: Mycobacterium tuberculosis; assay: Potency index, ratio of rifampin MIC to compound MIC for multidrug resistant Mycobacterium tuberculosis isolate 1
[6] = system: Mycobacterium tuberculosis; assay: Potency index, ratio of ciprofloxacin MIC to compound MIC for multidrug resistant Mycobacterium tuberculosis isolate 2
[7] = system: Mycobacterium tuberculosis; assay: Potency index, ratio of ciprofloxacin MIC to compound MIC for multidrug resistant Mycobacterium tuberculosis isolate 1
[8] = system: Mycobacterium tuberculosis; assay: Potency index, ratio of isoniazid MIC to compound MIC for multidrug resistant Mycobacterium tuberculosis isolate 2

Row | Structure (SMILES) | MIC [1] [µg/mL] | MIC [2] [µg/mL] | further results
1 | CCOC(=O)c1c(-c2ccc(OC)cc2)oc2ccc(OCCCN3C(=O)/C(=N\OC)c4cc(OC)ccc43)cc12 | 0.29 (≈ 0.519 µM) | 0.49 (≈ 0.877 µM) | –
2 | CCOC(=O)c1c(-c2ccc(OC)cc2)oc2ccc(OCCCCCN3C(=O)/C(=N\OC)c4cc(F)ccc43)cc12 | 4.24 (≈ 7.38 µM) | 3.46 (≈ 6.02 µM) | –
3 | CCOC(=O)c1c(-c2ccc(OC)cc2)oc2ccc(OCCCCCCN3C(=O)/C(=N\OC)c4cc(F)ccc43)cc12 | 3.56 (≈ 6.05 µM) | 2.85 (≈ 4.84 µM) | –
4 | CNC(=O)c1c(-c2ccc(O)cc2)oc2ccc(O)c(CN3CCCCC3)c12 | < 0.016 | < 0.016 | –
5 | CCOC(=O)c1c(-c2ccc(OC)cc2)oc2ccc(OCCCCN3C(=O)/C(=N\OC)c4ccccc43)cc12 | 0.16 (≈ 0.295 µM) | 0.062 (≈ 0.114 µM) | Ratio [3]: >=48; Ratio [4]: >=48; Ratio [5]: >=48; Ratio [6]: >=48; Ratio [7]: >=48; Ratio [8]: >=48
6 | CCOC(=O)c1c(-c2ccccc2)oc2ccc(OCCCN3C(=O)/C(=N\OC)c4ccccc43)cc12 | 0.91 (≈ 1.83 µM) | 0.94 (≈ 1.89 µM) | –
7 | CCOC(=O)c1c(-c2ccc(OC)cc2)oc2ccc(OCCCCCCN3C(=O)/C(=N\NC(N)=S)c4ccccc43)cc12 | 0.48 (≈ 0.781 µM) | 0.47 (≈ 0.765 µM) | –
8 | CCOC(=O)c1c(-c2ccc(OC)cc2)oc2ccc(OCCCN3C(=O)/C(=N\OC)c4ccccc43)cc12 | 0.21 (≈ 0.397 µM) | 0.16 (≈ 0.303 µM) | –
9 | CCOC(=O)c1c(-c2ccccc2)oc2ccc(OCCCN3C(=O)/C(=N\OC)c4cc(OC)ccc43)cc12 | 0.27 (≈ 0.511 µM) | 0.21 (≈ 0.397 µM) | –
10 | NNC(=O)c1ccncc1 [ISONIAZID] | > 40 | > 40 | –
11 | CCOC(=O)c1c(-c2ccc(OC)cc2)oc2ccc(OCCCCCCN3C(=O)/C(=N\NC(N)=S)c4cc(F)ccc43)cc12 | 0.9 (≈ 1.42 µM) | 0.95 (≈ 1.5 µM) | –
12 | CO[C@H]1/C=C/O[C@@]2(C)Oc3c(C)c(O)c4c(O)c(c(/C=N/N5CCN(C)CC5)c(O)c4c3C2=O)NC(=O)/C(C)=C\C=C\[C@H](C)[C@H](O)[C@@H](C)[C@@H](O)[C@@H](C)[C@H](OC(C)=O)[C@@H]1C [RIFAMPIN] | > 40 | > 40 | –
13 | CCOC(=O)c1c(-c2ccc(F)cc2)oc2ccc(OCCCCCCN3C(=O)C(=O)c4cc(F)ccc43)cc12 | 2.98 (≈ 5.44 µM) | 5.89 (≈ 10.8 µM) | –
14 | CCOC(=O)c1c(-c2ccc(OC)cc2)oc2ccc(OCCCCCCN3C(=O)/C(=N\OC)c4ccccc43)cc12 | 1.87 (≈ 3.28 µM) | 1.73 (≈ 3.03 µM) | –
15 | CCOC(=O)c1c(-c2ccc(OC)cc2)oc2ccc(OCCCCCCN3C(=O)C(=O)c4cc(F)ccc43)cc12 | 12.9 (≈ 23.1 µM) | 14.2 (≈ 25.3 µM) | –
16 | CCO/N=C1\C(=O)N(CCCCCCOc2ccc3oc(-c4ccc(OC)cc4)c(C(=O)OCC)c3c2)c2ccccc21 | 3.86 (≈ 6.6 µM) | 2.69 (≈ 4.6 µM) | –
17 | CCO/N=C1\C(=O)N(CCCCOc2ccc3oc(-c4ccc(OC)cc4)c(C(=O)OCC)c3c2)c2ccccc21 | 3.42 (≈ 6.14 µM) | 3.23 (≈ 5.8 µM) | –
18 | CCO/N=C1\C(=O)N(CCCOc2ccc3oc(-c4ccc(OC)cc4)c(C(=O)OCC)c3c2)c2ccccc21 | 5.88 (≈ 10.8 µM) | 4.25 (≈ 7.83 µM) | –
19 | CCO/N=C1\C(=O)N(CCCOc2ccc3oc(-c4ccc(OC)cc4)c(C(=O)OCC)c3c2)c2ccc(OC)cc21 | 2.12 (≈ 3.7 µM) | 2.24 (≈ 3.91 µM) | –
20 | O=C(O)c1cn(C2CC2)c2cc(N3CCNCC3)c(F)cc2c1=O [CIPROFLOXACIN] | 0.27 (≈ 0.815 µM) | 0.39 (≈ 1.18 µM) | –
